{"source": "patent US5494804A", "about": "“Differential determination process of α-amylase isoenzyme activities” (Kikkoman Corporation, priority 1993, dated 1996)", "key": {"human P-type α-amylase [1]": {"target": "T1, human P-type α-amylase (Homo sapiens, UniProt P04746)", "T1 construct": "purchased International Reagents Corp., Japan CARIBZYME AMY", "T1 sequence (P04746 16-511)": "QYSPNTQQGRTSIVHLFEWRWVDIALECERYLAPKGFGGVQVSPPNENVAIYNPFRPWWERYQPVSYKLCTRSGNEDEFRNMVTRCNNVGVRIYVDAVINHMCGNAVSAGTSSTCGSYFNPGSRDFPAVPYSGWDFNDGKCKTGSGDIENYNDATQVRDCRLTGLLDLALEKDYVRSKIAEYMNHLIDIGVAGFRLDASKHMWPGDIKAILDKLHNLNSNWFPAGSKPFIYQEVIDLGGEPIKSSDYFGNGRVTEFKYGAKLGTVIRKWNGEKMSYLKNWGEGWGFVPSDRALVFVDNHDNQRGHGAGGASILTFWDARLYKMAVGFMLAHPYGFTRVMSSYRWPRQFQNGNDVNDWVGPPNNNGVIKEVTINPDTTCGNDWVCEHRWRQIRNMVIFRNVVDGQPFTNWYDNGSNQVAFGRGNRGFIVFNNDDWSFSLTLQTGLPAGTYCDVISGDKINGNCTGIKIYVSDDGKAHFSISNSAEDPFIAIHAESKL", "experiment": "Inhibition of human P-type α-amylase by an inhibitor (variable absorbance at 400 nm, chromogenic substrate, coupled enzymes)", "format": "biochemical", "experimental": "(§1) (a) Preparation of a mixed solution of the substrate (N3G5-CNP) and the inhibitor DOG3\n(§2) N3G5-CNP and DOG3 obtained in Informative Example 2 were dissolved in a 50 mM phosphate buffer (pH 7.0) containing 40 mM NaCl and 2 mM MgCl2 so that the N3G5-CNP has a concentration of 3.25 mM (final concentration of 2.0 mM) and DOG3 has seven concentrations of 0.05, 0.11, 0.54, 1.09, 2.16, 3.25, 5.41 mM (final concentrations of 0.03, 0.07, 0.33, 0.67, 1.33, 2.00 and 3.33 mM, respectively).\n(§3) The commercially available human P-type α-amylase and human S-type α-amylase were dissolved in distilled water so that they have a concentration of about 150 IU/liter.\n(§4) It was prepared in the same manner as described in (b) in the section (1).\n(§5) After 250 μl of the α-amylase solution was admixed with 1.0 ml of the coupled enzyme solution and warmed to 37° C. for 1 minute, 2.0 ml of each of the mixtures (having 7 concentration) of the substrate (N3G5-CNP) and the inhibitor DOG3 was added, stirred and warmed to 37° C. for 2.5 minutes, and the variable absorbance in each sample at 400 nm was measured for 2 minutes.\n(§6) The activities of human P-type α-amylase and human S-type α-amylase containing 0 mM of DOG3 (without DOG3) were regarded as 100% and the relative activities of human P-type α-amylase and human S-type α-amylase in different concentrations of DOG3 were obtained from each determined value as mentioned above. In this connection, a open circle means P-type α-amylase and a closed circle means S-type α-amylase. […]\n(§7) On the other hand, procedures were carried out in the same manner as described above except that 1.0 ml of the coupled enzyme solution alone was used on behalf of the mixed solution in (c) to obtain the value of T with this method.\n(§8) The values of kp, ks, a and b in the wheat-germ inhibitor method were 1.1×10^-3, 1.1×10^-3, 0,262 and 0.726 as a result of the measurement. These values as well as those of T and W obtained in this method were substituted for the equations (3) and (4) to obtain the values of P and S (IU/liter). […]"}, "human S-type α-amylase [2]": {"target": "T2, human S-type α-amylase (Homo sapiens, UniProt P0DUB6)", "T2 construct": "purchased International Reagents Corp., Japan CARIBZYME AMY", "T2 sequence (P0DUB6 16-511)": "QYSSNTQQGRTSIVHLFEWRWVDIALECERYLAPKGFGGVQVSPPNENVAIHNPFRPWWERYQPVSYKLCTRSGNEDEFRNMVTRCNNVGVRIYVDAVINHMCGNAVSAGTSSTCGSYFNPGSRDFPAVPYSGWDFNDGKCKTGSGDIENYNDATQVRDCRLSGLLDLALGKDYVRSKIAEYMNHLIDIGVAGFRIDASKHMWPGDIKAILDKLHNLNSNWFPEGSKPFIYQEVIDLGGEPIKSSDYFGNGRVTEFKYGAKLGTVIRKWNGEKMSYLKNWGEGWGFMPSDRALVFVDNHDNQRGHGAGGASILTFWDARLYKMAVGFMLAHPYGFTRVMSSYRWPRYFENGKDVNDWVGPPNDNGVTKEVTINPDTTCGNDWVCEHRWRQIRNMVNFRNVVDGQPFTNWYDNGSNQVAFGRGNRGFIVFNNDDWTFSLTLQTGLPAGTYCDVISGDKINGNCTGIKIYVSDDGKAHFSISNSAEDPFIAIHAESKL", "experiment": "Inhibition of human S-type α-amylase by an inhibitor (variable absorbance at 400 nm, chromogenic substrate, coupled enzymes)", "format": "biochemical", "experimental": "as §1, §2, §3, §4, §5, §6, §7, §8"}, "human P-type α-amylase [3]": {"target": "T1, human P-type α-amylase", "experiment": "Km and reaction rate constant kp of the substrate for measuring α-amylase activity, P-type", "format": "biochemical", "experimental": "(§9) In a 50 mM phosphate buffer (pH 7.0) containing 40 mM NaCl and 2 mM MgCl2 was dissolved N3G5-CNP obtained in Informative Example 1 to prepare substrate solutions for measuring α-amylase activity in a concentration of 0.16, 0.32, 0.48, 0.64, 0.80 and 0.96 mM.\n(§10) A commercially available glucoamylase derived from Rhizopus sp. and β-glucosidase derived from almond were mixed and dissolved in a 50 mM phosphate buffer (pH 7.0) containing 40 mM NaCl and 2 mM MgCl2 to the concentration of the glucoamylase and β-glucosidase being 163 units/ml and 16.3 units/ml, respectively. In this connection, these commercially available glucoamylase and β-glucosidase used were manufactured by Toyobo Co., Ltd.\n(§11) Each of commercially available human P-type α-amylase and human S-type α-amylase was dissolved in distilled water to ensure that the concentration of each amylase was about 150 IU/liter.\nThe commercially available human α-amylases used were CARIBZYME AMY manufactured by International Reagents Corp., Japan. […]\n(§12) As for the human P-type α-amylase solution and human S-type α-amylase solution, 1.0 ml of a coupled enzyme solution was added to and stirred with 250 μl of the α-amylase solution, warmed to 37° C. for 1 minute, and 2.0 ml of each concentration of the N3G5-CNP solution was added and stirred, warmed to 37° C. for 2.5 minutes to measure the variable absorbances at 400 nm for 2 minutes. […]"}, "human S-type α-amylase [4]": {"target": "T2, human S-type α-amylase", "experiment": "Km and reaction rate constant ks of the substrate for measuring α-amylase activity, S-type", "format": "biochemical", "experimental": "as §9, §10, §11\nThe commercially available human α-amylases used were CARIBZYME AMY manufactured by International Reagents Corp., Japan.\nThe molecular extinction coefficient (ε) of 2-chloro-4-nitrophenol is defined 16,100 and for α-amylase activity the amount of enzyme which decomposes 1 μmol of G5-CNP at 37° C. for a minute is defined as 1 International Unit (IU) (and so forth).\nas §12\nFor six solutions of each of the human P-type α-amylase and the human S-type α-amylase, 1.0 ml of the coupled enzyme solution was added to and stirred with 250 μl of the α-amylase solution and warmed to 37° C. for 1 minute, respectively. 2.0 ml of N3G5-CNP solution was added and stirred, and the mixture was warmed to 37° C. for 2.5 minutes to measure the variable absorbances at 400 nm for 2 minutes. […]"}, "α-amylase": {"test_system": "α-amylase", "experiment": "Km value of G5-CNP (isoenzyme not stated)", "format": "biochemical, human", "details": "α-glucosidase instead of glucoamylase as coupled enzyme", "experimental": "As for the human P-type α-amylase solution and human S-type α-amylase solution, 1.0 ml of a coupled enzyme solution was added to and stirred with 250 μl of the α-amylase solution, warmed to 37° C. for 1 minute, and 2.0 ml of each concentration of the N3G5-CNP solution was added and stirred, warmed to 37° C. for 2.5 minutes to measure the variable absorbances at 400 nm for 2 minutes. At the same time, a blank test was carried out with 250 μl of distilled water instead of the α-amylase solution. The measurements thus obtained were plotted by the Lineweaver-Burk method to calculate the Km value by the method of least squares.\nThe Km value and the reaction rate constants (kp and ks) of G5-CNP and the inhibition constants a and b of DOG3 were measured in the same manner as in Example 1 except that a commercially available G5-CNP [manufactured by Daiichi Pure Chemicals Co., Ltd.] on behalf of N3G5-CNP as the substrate for measuring α-amylase was used and 406 units/liter of α-glucosidase [manufactured by Toyobo Co., Ltd.] was used on behalf of glucoamylase as a coupled enzyme."}, "[5]": {"details": "α-glucosidase instead of glucoamylase as coupled enzyme"}, "[6]": {"details": "substrate final concentration 2.0 mM, 37° C., inclination of absorbance versus activity line, glucoamylase and β-glucosidase"}}}
{"smiles": "C[C@H]1O[C@H](O[C@H]2[C@H](O)[C@@H](O)[C@@H](O[C@H]3[C@H](O)[C@@H](O)C(O)O[C@@H]3CO)O[C@@H]2CO)[C@H](O)[C@@H](O)[C@@H]1O", "note": "(stereo partly drawn) [DOG3, O-6-deoxy-α-D-glucopyranosyl-(1→4)-O-α-D-glucopyranosyl-(1→4)-D-glucose]", "values": [{"measurement": "activity at 330 µM", "setting": "human P-type α-amylase [1]; DOG3 0.33 mM final, substrate N3G5-CNP 2.0 mM final, 37° C., pH 7.0, read-out: relative activity of human P-type α-amylase (without DOG3 = 100%)", "value": 13.1, "unit": "%"}, {"measurement": "difference of the relative activities of P-type and S-type α-amylases (maximum)", "setting": "human P-type α-amylase [1]; DOG3 0.33 mM, substrate N3G5-CNP, S-type minus P-type, as fraction", "value": 0.548}, {"measurement": "inhibition at 500 µM", "setting": "human P-type α-amylase [1]; DOG3 0.50 mM, substrate G5-CNP, α-glucosidase and β-glucosidase as coupled enzymes, read-out: inhibition constant a (to P-type α-amylase)", "value": 61.7, "unit": "%"}, {"measurement": "inhibition at 330 µM", "setting": "human P-type α-amylase [1]; pH 7, DOG3 0.33 mM, substrate N3G5-CNP 2.0 mM, read-out: inhibition constant a (to P-type α-amylase) = 1 - relative activity", "value": 86.9, "unit": "%"}, {"measurement": "activity at 330 µM", "setting": "human S-type α-amylase [2]; DOG3 0.33 mM final, substrate N3G5-CNP 2.0 mM final, 37° C., pH 7.0, read-out: relative activity of human S-type α-amylase (without DOG3 = 100%)", "value": 67.9, "unit": "%"}, {"measurement": "inhibition at 500 µM", "setting": "human S-type α-amylase [2]; DOG3 0.50 mM, substrate G5-CNP, α-glucosidase and β-glucosidase as coupled enzymes, read-out: inhibition constant b (to S-type α-amylase)", "value": 14.1, "unit": "%"}, {"measurement": "inhibition at 330 µM", "setting": "human S-type α-amylase [2]; pH 7, DOG3 0.33 mM, substrate N3G5-CNP 2.0 mM, read-out: inhibition constant b (to S-type α-amylase) = 1 - relative activity", "value": 32.1, "unit": "%"}]}
{"smiles": "O=[N+]([O-])c1ccc(O[C@@H]2O[C@H](CO)[C@@H](O[C@H]3O[C@H](CO)[C@@H](O[C@H]4O[C@H](CO)[C@@H](O[C@H]5O[C@H](CO)[C@@H](O[C@H]6O[C@H](CO)[C@@H](O)[C@H](O)[C@H]6O)[C@H](O)[C@H]5O)[C@H](O)[C@H]4O)[C@H](O)[C@H]3O)[C@H](O)[C@H]2O)c(Cl)c1", "note": "[G5-CNP, 2-chloro-4-nitrophenyl β-D-maltopentaoside, reference compound]", "values": [{"measurement": "reaction rate constant kp", "setting": "human P-type α-amylase [3]; [5]", "value": "1.2×10^-3"}, {"measurement": "reaction rate constant ks", "setting": "human S-type α-amylase [4]; [5]", "value": "1.2×10^-3"}, {"measurement": "Km", "setting": "α-amylase", "value": 450, "unit": "µM"}]}
{"smiles": "[N-]=[N+]=NC[C@H]1O[C@H](O[C@H]2[C@H](O)[C@@H](O)[C@@H](O[C@H]3[C@H](O)[C@@H](O)[C@@H](O[C@H]4[C@H](O)[C@@H](O)[C@@H](O[C@H]5[C@H](O)[C@@H](O)[C@H](Oc6ccc([N+](=O)[O-])cc6Cl)O[C@@H]5CO)O[C@@H]4CO)O[C@@H]3CO)O[C@@H]2CO)[C@H](O)[C@@H](O)[C@@H]1O", "note": "[N3G5-CNP, 2-chloro-4-nitro-phenyl 6^5-azido-6^5-deoxy-β-D-maltopentaoside]", "values": [{"measurement": "reaction rate constant kp", "setting": "human P-type α-amylase [3]; [6]", "value": "1.1×10^-3"}, {"measurement": "Km", "setting": "human S-type α-amylase [4]; Lineweaver-Burk, 37° C., pH 7.0, glucoamylase and β-glucosidase as coupled enzymes", "value": 270, "unit": "µM"}, {"measurement": "reaction rate constant ks", "setting": "human S-type α-amylase [4]; [6]", "value": "1.1×10^-3"}]}
